Assay results from patent US20010051654A1, “Treatment of inflammatory and autoimmune diseases” (priority 1997, published 2001).
Read-outs that look alike come from different tables or passages of the source.

Legend:
[1] = test system: 20 S proteasome from rabbit reticulocytes; test: Chymotryptic and tryptic activities of purified 20 S proteasome from rabbit reticulocytes
Experimental: Chymotryptic and tryptic assays were performed as described in Examples 3 and 5 at increasing concentrations of the proteasome inhibitor 1.

20 S proteasome [2] = target: T1, 20 S proteasome (Rattus norvegicus, UniProt P28075)
T1 sequence (P28075 60-263): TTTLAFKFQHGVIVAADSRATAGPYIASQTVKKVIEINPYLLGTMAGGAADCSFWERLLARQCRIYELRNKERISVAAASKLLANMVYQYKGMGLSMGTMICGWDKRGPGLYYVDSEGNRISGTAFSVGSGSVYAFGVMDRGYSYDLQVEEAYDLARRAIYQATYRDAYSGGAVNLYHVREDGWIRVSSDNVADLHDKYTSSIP
Experimental: In two studies, female Wistar rats (150 to 200 g) were administered a single intravenous dose of 1 (0.03, 0.1 and 0.3 mg/kg in a dose volume of 1.0 mL/kg). […] Tissue samples were collected from liver and brain at 1.0, 24 and 48 h following administration for evaluation of 20 S proteasome activity.
In a third study, male Sprague-Dawley rats (250 to 450 g) were administered a single intravenous dose of 1 (0.1 and 0.3 mg/kg in a dose volume of 1.0 mL/kg). […] Blood and tissue samples were collected 1.0 h following administration for evaluation of 20 S proteasome activity. The tissues collected were brain, colon, liver, muscle (gastrocnemius), prostate and testes.

20 S proteasome [3] = test: Ex vivo 20 S proteasome activity in primate white blood cells; design: species or system Cynomolgus monkeys
Experimental: (§1) Male and female Cynomolgus monkeys (2.2 to 3.5 kg) were assigned to four groups (5/sex/group). Each group received 0 (vehicle control), 0.045, 0.067 or 0.100 mg/kg/dose of 1 as a single intravenous injection in a dose volume of 0.3 mL/kg twice weekly for 4 weeks (days 1, 5, 8, 12, 15, 19, 22 and 26). […] Three males from the control, low- and mid-dose groups, two high-dose males, and three females/group were sacrificed at the end of treatment on Day 27. Two animals/sex/group were designated as recovery animals and received treatment for 4 weeks followed by 2 weeks of recovery; they were sacrificed on Day 41.
(§2) Blood was collected for 20 S proteasome activity determination prior to treatment, at 1.0 h after dosing on Days 1, 8, 15 and 22, and at 1.0 h prior to dosing on Days 5, 12, 19 and 26; and on Days 31, 34, 38, and 41 (recovery sacrifice animals).

20 S proteasome [4] = test: Chymotryptic and tryptic assays in rat white blood cell lysates; assay type: biochemical; conditions: fit, FIG. 19
Excerpt: Data was fitted as in Example 10, to give kc/kt=17.6±and βt=1.1±0.2 (FIG. 19).

[5] = design: species or system Sprague-Dawley rats; conditions: rat, in vivo, iv
Experimental: A single dose intravenous pharmacokinetics study with N-(pyrazine)carbonyl-L-phenylalanine-L-leucine boronic acid (1) was conducted in Sprague-Dawley rats (140 to 280 g). Animals were assigned to 3 groups (6/sex in Groups 1 and 2; 9/sex in Group 3). Animals in groups 1, 2, and 3 received 0.03, 0.1 or 0.3 mg/kg of 1, respectively, in the same dose volume.
Blood samples (approximately 1.0 mL) were collected from the jugular vein of animals pre-dose and at approximately 10 and 30 min and 1, 3 and 24 h post-dose on Day 1.

20 S proteasome [6] = test: Ex vivo 20 S proteasome activity in peripheral white blood cells of rats
Experimental: (§3) This preparation procedure applies to blood samples collected from mammals, particularly rats, mice, dogs, pigs, rabbits, non-human primates, or human subjects. Peripheral white blood cells are separated from blood samples upon collection for storage at about −70° C. until tested. To avoid interference with the assay due to the presence of endogenous proteasome inhibitors, it is important that red blood cells be rigorously excluded.
(§4) The blood sample is diluted 1:1 (v/v) with sterile saline, and the blood-saline mixture is layered over NYCOPREP™ separation medium (GIBCO BRL Products) in a 14×75 mm polystyrene test tube at a ratio of approximately 2:1 blood:NYCOPREP™. The sample is centrifuged at 500 x g for approximately 30 minutes at room temperature. The top layer is removed, leaving ˜2-3 mm of the cell band between the top and bottom layers. The remaining cell band is transferred by pipette to a clean centrifuge tube. The cell band is washed with 3 mL of cold phosphate-buffered saline and centrifuged at 400 x g for 5 minutes at 4° C. The supernatant is poured off and the pellet is resuspended in ˜1 mL of cold phosphate-buffered saline. The suspension is transferred to a 1.5 mL Eppendorf microfuge tube and microfuged at 6600 x g for approximately 10 minutes at 4° C. The supernatant is aspirated off and the cell pellet is stored at −70° C.±10° C.
Measurement of this rate in the absence and in the presence of an inhibitor allows a determination of how enzyme is bound by inhibitor. This assay is used to measure 20 S proteasome activity in peripheral white blood cells in mammals, particularly rats, mice, dogs, pigs, rabbits, non-human primates, or human subjects.
The amount of 20 S proteasome activity in the test sample is calculated according to the following formula: [formula]
Dose formulations of 1 were prepared daily during the course of the study. Dilutions were prepared from a stock solution. The stock solution of 1 was made up in 98% saline (0.9%), 2% ethanol with 0.1% ascorbic acid. Dilutions of the stock were made in the same vehicle.
Drugs were administered in vehicle intravenously (IV) using a dose volume of 100 μL per mouse or 1.0 mL/kg in rats. Control groups were administered with the vehicle (98% saline [0.9%], 2% ethanol, 0.1% ascorbic acid). Animals were dosed with 1 as a single IV bolus given either once or on multiple occasions.
Following IV dosing with 1, blood was withdrawn at various time points and peripheral white blood cells were isolated.
Blood samples were collected at 1.0, 24 and 48 h following administration of 1.
In an additional repeat dose study, male Sprague-Dawley rats (250 to 450 g; n=6 per group) were treated with twice weekly intravenous doses of 1 (0.01 to 0.35 mg/kg/day in a dose volume of 1.0 mL/kg) for two weeks. The vehicle was 0. […] Blood samples were collected 1.0 h after the last dose for evaluation of 20 S proteasome activity.

20 S proteasome [7] = test: Chymotryptic to tryptic activity ratio assay, human samples; assay type: biochemical
Excerpt: βt=activation factor determined upon titration of the proteasome inhibitor. For the proteasome inhibitor 1, βt=1.28 in human samples.

[8] = Twice weekly intravenous dosing for 4 weeks in Cynomolgus monkeys, clinical condition; assay type: in vivo; conditions: one high-dose male (0.100 mg/kg/dose), Day 26 after receiving 8 doses
Experimental: as §1, §2

20 S proteasome [9] = test: Ex vivo 20 S proteasome activity in peripheral white blood cells of mice
Experimental: as §3
as §4, with “The supernatant is aspirated off and the cell pellet is stored at −70° C.±10° C.” left out
The amount of 20 S proteasome activity in the test sample is calculated according to the following formula: [formula] […]

[10] = test system: actively sensitized Brown Norway rats; test: Allergen-induced pulmonary leukocyte accumulation in actively sensitized Brown Norway rats (3b alone); assay type: in vivo
Experimental: Rats. Male Brown Norway rats were supplied by Harlan Olac Limited (Bicester, Oxon, UK) and delivered within the weight range of 180-200 g. Following acclimatization for at least five days, animals were actively sensitized over a 3-week period and were within the weight range 250-300 g at the time of allergen exposure. Food and water were provided ad libitum.
Sensitization. Ovalbumin (OA; 10 μg) mixed with aluminum hydroxide gel (10 mg) will be injected (0.5 mL, i.p.) into Brown Norway rats and repeated 7 and 14 days later.
Drug Treatment. On day 21, sensitized rats were anaesthetized (halothane 5% in O2) and 3b, dexamethasone, or vehicle (lactose) was instilled via a cannula placed directly into the trachea at 1 hour prior to OA exposure. This procedure was repeated at 24 hours and 48 hours after OA exposure.
Challenge. Following recovery, sensitized animals were restrained in plastic tubes and exposed (60 min) to an aerosol of OA (10 mg/mL) using a nose-only exposure system. Animals were sacrificed 72 hours later with pentobarbital (250 mg/kg i.p.).
Analysis. The lungs were lavaged using 3 aliquots (4 mL) of Hank's solution (HBSS x 10, 100 mL; EDTA 100 mM, 100 mL; HEPES 1M, 10 mL made to […] with water); recovered cells were pooled and the total volume of recovered fluid was adjusted to 12 mL by addition of Hank's solution. Total cells were counted (Sysmex Microcell Counter F-500, TOPA Medical Electronics Ltd., Japan). Smears were made by diluting recovered fluid (to approximately 10^6 cells/mL) and spinning an aliquot (100 μL) in a centrifuge (Cytospin, Shandon, UK). Smears were air dried, fixed using a solution of fast green in methanol (2 mg/L) for 5 seconds and stained with eosin G (5 seconds) and thiazine (5 seconds) (Diff-Quik, Baxter Dade Ltd, Switzerland) in order to differentiate eosinophils, neutrophils, macrophages and lymphocytes. A total of 500 cells per smear were counted by light microscopy under oil immersion (x 1000).

[11] = 1.0 h after single IV 0.1 and 0.3 mg/kg, male Sprague-Dawley rats
[12] = alternate daily IV for 14 days, 24 h after last dose
[13] = daily IV for 7 days, 24 h after last dose
[14] = once weekly IV for 8 weeks, 24 h after last dose
[15] = 0.1 and 0.3 mg/kg i.t. 1 h before, 24 h and 48 h after OA, 72 h
[16] = dose dependence, 72 hours after aerosolized ovalbumin

CC(C)C[C@H](NC(=O)[C@H](Cc1ccccc1)NC(=O)c1cnccn1)B(O)O [Compound 1, N-(pyrazine)carbonyl-L-phenylalanine-L-leucine boronic acid]
βc (factor for chymotryptic activity of the E•I complex; 0 = total inhibition) [1]: 0
chymotryptic activity (FIG. 17) ([1]; increasing concentrations of 1): fully inhibits
tryptic activity (FIG. 17) ([1]; increasing concentrations of 1): activation
βt (activation factor of tryptic activity) ([1]; purified 20 S proteasome from rabbit reticulocytes, fit, FIG. 18): 1.38±0.05
20 S proteasome activity in rat liver (20 S proteasome [2]; 1.0 h after single IV 0.03, 0.1, 0.3 mg/kg, female Wistar rats): significant (p<0.05) dose-related decrease
20 S proteasome activity in peripheral white blood cells, colon, liver, muscle (gastrocnemius), and prostate (20 S proteasome [2]; [11]): Significant (p<0.05) dose-related decreases
20 S proteasome inhibition in brain and testes (20 S proteasome [2]; [11]): No 20 S proteasome inhibition
20 S proteasome activity in rat liver (20 S proteasome [2]; 24 h after single IV, high dose group 0.3 mg/kg, female Wistar rats): smaller, but remained significant (p<0.05) in the high dose group
20 S proteasome activity in rat liver (20 S proteasome [2]; 48 h after single IV, female Wistar rats): returned to baseline
penetration into brain tissue (20 S proteasome [2]; inferred from absent 20 S proteasome inhibition, female Wistar rats): lack of penetration
penetration into brain and testes (20 S proteasome [2]; inferred from absent 20 S proteasome inhibition, male Sprague-Dawley rats): lack of 1 penetration
20 S proteasome inhibition in brain tissue (20 S proteasome [2]; single IV 0.03, 0.1, 0.3 mg/kg, female Wistar rats): No 20 S proteasome inhibition
white blood cell 20 S proteasome activity (20 S proteasome [3]; 1.0 h after dosing, 0.045, 0.067 or 0.100 mg/kg/dose IV twice weekly for 4 weeks): significant and dose-related decrease
white blood cell 20 S proteasome activity (20 S proteasome [3]; 72 hours after dosing, prior to the subsequent dose): recovered
white blood cell 20 S proteasome activity of the moribund animal (20 S proteasome [3]; high-dose male at sacrifice on Day 26 after 8 doses): low residual 20 S proteasome activity
βt (activation factor of tryptic activity) (20 S proteasome [4]): 1.1±0.2
clearance from the blood [5]: rapidly cleared
time to peak concentration (Tmax) ([5]; 0.3 mg/kg): ~10 min
20 S proteasome activity in white blood cells (20 S proteasome [6]; 1.0 h after single IV 0.03 to 0.3 mg/kg, female Wistar rats): significant (p<0.05) dose-related decrease
20 S proteasome activity in white blood cells (20 S proteasome [6]; 24 h after single IV 0.03 to 0.3 mg/kg, female Wistar rats): smaller, but remained significant (p <0.05) in the higher dose groups
20 S proteasome activity in white blood cells (20 S proteasome [6]; 48 h after single IV 0.03 to 0.3 mg/kg, female Wistar rats): no longer significantly decreased
20 S proteasome activity in white blood cells (20 S proteasome [6]; [12]): significant dose-related decrease
dose groups with significant (p<0.05) decrease in 20 S proteasome activity (20 S proteasome [6]; [12]): > 0.2 mg/kg
20 S proteasome activity in white blood cells (20 S proteasome [6]; [13]): dose-related decrease
doses with significant inhibition of 20 S proteasome activity (20 S proteasome [6]; [13]): > 0.05 mg/kg
20 S proteasome activity in white blood cells (20 S proteasome [6]; [14]): significant (p<0.05) dose-related decrease
dose groups with significant (p<0.05) decrease in 20 S proteasome activity (20 S proteasome [6]; [14]): > 0.1 mg/kg
20 S proteasome activity in white blood cells (20 S proteasome [6]; twice weekly IV for 2 weeks (4 doses, 0.01 to 0.35 mg/kg/day), 1.0 h after last dose, male Sprague-Dawley rats): dose-related decrease
dose groups with significant (p<0.05) decrease in 20 S proteasome activity (20 S proteasome [6]; twice weekly IV for 2 weeks, 1.0 h after last dose, male Sprague-Dawley rats): > 0.03 mg/kg
βt (activation factor determined upon titration of the proteasome inhibitor) (20 S proteasome [7]): 1.28
clinical condition [8]: sacrificed in moribund condition
20 S proteasome activity in white blood cells (20 S proteasome [9]; 1.0 h after single IV 0.1 to 3.0 mg/kg, all dose groups): significant (p<0.05) dose-related decrease
20 S proteasome activity in white blood cells (20 S proteasome [9]; 24 h after single IV 0.1 to 3.0 mg/kg): starts to recover

CCCC1C(=O)NC2(C(O)C(C)C)OC(=O)C12 (stereo not drawn) [Compound 3b, 7-n-propyl-clasto-lactacystin β-lactone]
influx of eosinophils in bronchoalveolar lavage fluid [10, 15]: reduced
influx of total leukocytes in bronchoalveolar lavage fluid [10, 15]: reduced
lymphocyte count in bronchoalveolar lavage fluid ([10]; all doses i.t., 72 h after OA): significant decrease
eosinophil count in bronchoalveolar lavage fluid (FIG. 4) [10, 16]: dose dependent inhibition
leukocyte count in bronchoalveolar lavage fluid (FIG. 3) [10, 16]: dose-dependent reduction
